This passage reports GI50 and TGI results from PubChem BioAssay (NCI).

“And” between values parts separate entries of the source, which are not always exact repeats. Identical values can stand only once.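 Tested at 5 concentrations; 48 h exposure; 96-well plates; endpoints linearly interpolated, else capped at highest concentration. GI50 = concentration required for 50% inhibition of growth. TGI: concentration producing complete growth inhibition.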 A value given as a limit tells only on which side of the number the result lay.

The first test has as its system SN12C renal. Briefly: NCI anticancer screen, dose series, 48 h.
Regarding `CCOC(=O)c1c(NC(=O)c2cccc(C(F)(F)F)c2)sc2c(CN(C)C)c(O)ccc12`, the GI50 was 7.68 µM and the TGI stood at 20.4 µM.

A further test has as its system SK-OV-3 ovarian. Briefly: NCI anticancer screen, dose series, 48 h.
`CCn1c(=O)c2c(=O)c3c4c(oc3oc2c2ccccc21)C(=O)c1ccccc1C4=O`: the GI50 was over 100 µM and the TGI was over 100 µM.

As for `NC(=O)c1cc(S(=O)(=O)Nc2nnc(-c3ccccc3)c(-c3ccccc3)n2)c(SCc2ccccc2)cc1Cl`, the GI50 is over 74.7 µM and the TGI was over 100 µM.

`Cc1cc(C)c(/C=C2\C(=O)Nc3ccc(NC(=O)CCCCCCC(=O)NO)cc32)[nH]1`: the GI50 was 0.664 µM and the TGI was determined as 4.56 µM.

With `C1=C\COCc2cc(ccc2OCCN2CCCC2)Nc2nccc(n2)-c2cccc(c2)COC/1`, the GI50 was 3.62 µM and the TGI was found to be 6.19 µM.

`COc1ccc(-c2coc3c4c(ccc3c2=O)OCO4)cc1OC` registered a TGI of 83.6 µM.

For the molecule `CC(C)(S)C(N)C(=O)O` (configuration not stated), the GI50 was 2600 µM and the TGI was over 5000 µM.

As to `O=C1c2ccccc2-c2c1c1ccccc1c(=O)n2CCCCl`, the GI50 is 19.1 µM and the TGI turned out to be 62.2 µM.

Turning to `CN1C(=O)/C(=C/c2c(Cl)n(C)c3ccccc23)c2ccccc21`, the GI50 was 4.84 µM and 1.57 µM; the TGI came to 2.91 µM.

Regarding `Cc1nc(-[n+]2nc(-c3ccncc3)nn2-c2ccccc2)sc1C`, the TGI worked out at 67.5 µM.

For the molecule `COc1cc2c3c(n(CCCOC(=O)C(F)(F)F)c(=O)c2cc1OC)-c1cc2c(cc1C3=O)OCO2`, the TGI is over 100 µM.

Turning to `CCOC(=O)/C=C(/C)Sc1cc(O)c2ccccc2c1O`, the GI50 is 13.8 µM and the TGI amounted to 44.5 µM.

Regarding `N=C(N)c1ccc2nc(-c3cc(CC(=O)N[C@@H](CC(=O)O)C(=O)O)cc(-c4cc(S(N)(=O)=O)ccc4O)c3O)[nH]c2c1`, the GI50 was over 100 µM and the TGI is over 100 µM.

With `CN(CCO)c1ccc(N2Cc3ccccc3OC3=C2C(=O)c2c(O)ccc(O)c2C3=O)cn1`, the GI50 was 2.24 µM and the TGI came to 8.65 µM.

As for `COC(=O)[C@@H](C)C[C@H](Cc1ccccc1)NC(=O)c1csc([C@@H](C[C@H](C(C)C)N(C)C(=O)[C@@H](NC(=O)[C@H]2CCCCN2C)C2CCCCC2)OC(C)=O)n1`, the GI50 was 0.000567 µM and 0.0025 µM; the TGI is over 25 µM.

Turning to `COc1ccc(CCNC(=O)c2ccc(NC3=C(Cl)C(=O)N(Cc4ccccc4)C3=O)cc2)cc1OC`, the GI50 was 35.8 µM and the TGI was over 100 µM.

`OCc1ccn2c1[C@@H](O)CC2` returned a TGI of over 100 µM.

As for `CCOC(=O)c1c(NC(=O)c2cccc(C(F)(F)F)c2)sc2c(CN(C)C)c(O)ccc12`, the GI50 was 19.1 µM and the TGI was 41.8 µM.

The subject of the next test is U251 CNS. Kind of test: NCI anticancer screen, dose series, 48 h.
In the case of `CCn1c(=O)c2c(=O)c3c4c(oc3oc2c2ccccc21)C(=O)c1ccccc1C4=O`, the GI50 is over 27.1 µM and the TGI is over 100 µM.

As for `NC(=O)c1cc(S(=O)(=O)Nc2nnc(-c3ccccc3)c(-c3ccccc3)n2)c(SCc2ccccc2)cc1Cl`, the GI50 was over 55.6 µM and the TGI is over 100 µM.

For the molecule `Cc1cc(C)c(/C=C2\C(=O)Nc3ccc(NC(=O)CCCCCCC(=O)NO)cc32)[nH]1`, the GI50 was 0.529 µM and the TGI was 10.4 µM.

Turning to `C1=C\COCc2cc(ccc2OCCN2CCCC2)Nc2nccc(n2)-c2cccc(c2)COC/1`, the GI50 was 2.49 µM and the TGI came out at 5.21 µM.

In turn, `COc1ccc(-c2coc3c4c(ccc3c2=O)OCO4)cc1OC` had a TGI of over 100 µM.

Consider `CC(C)(S)C(N)C(=O)O` (configuration not stated), for which the GI50 is 1780 µM and the TGI was over 5000 µM.

On to `O=C1c2ccccc2-c2c1c1ccccc1c(=O)n2CCCCl`, for which the GI50 is 11 µM and the TGI amounted to 31.5 µM.

Turning to `CN1C(=O)/C(=C/c2c(Cl)n(C)c3ccccc23)c2ccccc21`, the GI50 is 3.7 µM and 1.73 µM; the TGI was determined as 3.16 µM.

On to `Cc1nc(-[n+]2nc(-c3ccncc3)nn2-c2ccccc2)sc1C`, for which the TGI was over 100 µM.

On to `COc1cc2c3c(n(CCCOC(=O)C(F)(F)F)c(=O)c2cc1OC)-c1cc2c(cc1C3=O)OCO2`, for which the GI50 is under 0.01 µM and the TGI was found to be 1.07 µM.

`CCOC(=O)/C=C(/C)Sc1cc(O)c2ccccc2c1O`: the GI50 is 4.31 µM and the TGI was found to be 24 µM.

For `N=C(N)c1ccc2nc(-c3cc(CC(=O)N[C@@H](CC(=O)O)C(=O)O)cc(-c4cc(S(N)(=O)=O)ccc4O)c3O)[nH]c2c1`, the GI50 is over 100 µM and the TGI is over 100 µM.

On to `CN(CCO)c1ccc(N2Cc3ccccc3OC3=C2C(=O)c2c(O)ccc(O)c2C3=O)cn1`, for which the GI50 was 0.284 µM and the TGI was found to be 0.82 µM.

Turning to `COC(=O)[C@@H](C)C[C@H](Cc1ccccc1)NC(=O)c1csc([C@@H](C[C@H](C(C)C)N(C)C(=O)[C@@H](NC(=O)[C@H]2CCCCN2C)C2CCCCC2)OC(C)=O)n1`, the GI50 was 0.000533 µM and 0.0025 µM; the TGI is over 25 µM.

As to `COc1ccc(CCNC(=O)c2ccc(NC3=C(Cl)C(=O)N(Cc4ccccc4)C3=O)cc2)cc1OC`, the GI50 was 32.8 µM and the TGI is over 100 µM.

Molecule `OCc1ccn2c1[C@@H](O)CC2` returned a TGI of over 100 µM.

Turning to `CCOC(=O)c1c(NC(=O)c2cccc(C(F)(F)F)c2)sc2c(CN(C)C)c(O)ccc12`, the GI50 was 2.21 µM and the TGI is 5.45 µM.

For another test, the system named is UACC-62 melanoma. Briefly: NCI anticancer screen, dose series, 48 h.
Take `CCn1c(=O)c2c(=O)c3c4c(oc3oc2c2ccccc21)C(=O)c1ccccc1C4=O`: the GI50 is over 25 µM and the TGI was over 100 µM.

As for `NC(=O)c1cc(S(=O)(=O)Nc2nnc(-c3ccccc3)c(-c3ccccc3)n2)c(SCc2ccccc2)cc1Cl`, the GI50 is 71.1 µM and the TGI is over 100 µM.

As to `Cc1cc(C)c(/C=C2\C(=O)Nc3ccc(NC(=O)CCCCCCC(=O)NO)cc32)[nH]1`, the GI50 was 0.407 µM and the TGI stood at 2.75 µM.

Turning to `C1=C\COCc2cc(ccc2OCCN2CCCC2)Nc2nccc(n2)-c2cccc(c2)COC/1`, the GI50 is 2.02 µM and the TGI is 5.2 µM.

Molecule `COc1ccc(-c2coc3c4c(ccc3c2=O)OCO4)cc1OC` yielded a TGI of over 100 µM.
